Data taken from patent publication US10092570B2 (Incyte Corporation, priority 2011, dated 2018).
Counter-ions that a name gives are not always drawn.

target: PI3Kδ (p110δ/p85α) (Homo sapiens (Human), UniProt O00329); assay: Example A3: PI3Kδ scintillation proximity assay; format: biochemical; settings: scintillation proximity assay, 20 μM ATP, 4 nM PI3Kδ; read-out: PI3Kδ SPA IC50
Outline: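 p110δ/p85α (4 nM) phosphorylated 20 μM PIP2 with 20 μM ATP plus [γ-33P]ATP in MOPS pH 6.7, MgCl2, DTT, CHAPS, 0.5% DMSO, at RT. Stopped with EDTA/excess ATP, product captured on WGA SPA beads overnight and counted; IC50 from percent control activity versus log inhibitor.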

Chain of PI3Kδ (p110δ/p85α) (O00329 whole entry): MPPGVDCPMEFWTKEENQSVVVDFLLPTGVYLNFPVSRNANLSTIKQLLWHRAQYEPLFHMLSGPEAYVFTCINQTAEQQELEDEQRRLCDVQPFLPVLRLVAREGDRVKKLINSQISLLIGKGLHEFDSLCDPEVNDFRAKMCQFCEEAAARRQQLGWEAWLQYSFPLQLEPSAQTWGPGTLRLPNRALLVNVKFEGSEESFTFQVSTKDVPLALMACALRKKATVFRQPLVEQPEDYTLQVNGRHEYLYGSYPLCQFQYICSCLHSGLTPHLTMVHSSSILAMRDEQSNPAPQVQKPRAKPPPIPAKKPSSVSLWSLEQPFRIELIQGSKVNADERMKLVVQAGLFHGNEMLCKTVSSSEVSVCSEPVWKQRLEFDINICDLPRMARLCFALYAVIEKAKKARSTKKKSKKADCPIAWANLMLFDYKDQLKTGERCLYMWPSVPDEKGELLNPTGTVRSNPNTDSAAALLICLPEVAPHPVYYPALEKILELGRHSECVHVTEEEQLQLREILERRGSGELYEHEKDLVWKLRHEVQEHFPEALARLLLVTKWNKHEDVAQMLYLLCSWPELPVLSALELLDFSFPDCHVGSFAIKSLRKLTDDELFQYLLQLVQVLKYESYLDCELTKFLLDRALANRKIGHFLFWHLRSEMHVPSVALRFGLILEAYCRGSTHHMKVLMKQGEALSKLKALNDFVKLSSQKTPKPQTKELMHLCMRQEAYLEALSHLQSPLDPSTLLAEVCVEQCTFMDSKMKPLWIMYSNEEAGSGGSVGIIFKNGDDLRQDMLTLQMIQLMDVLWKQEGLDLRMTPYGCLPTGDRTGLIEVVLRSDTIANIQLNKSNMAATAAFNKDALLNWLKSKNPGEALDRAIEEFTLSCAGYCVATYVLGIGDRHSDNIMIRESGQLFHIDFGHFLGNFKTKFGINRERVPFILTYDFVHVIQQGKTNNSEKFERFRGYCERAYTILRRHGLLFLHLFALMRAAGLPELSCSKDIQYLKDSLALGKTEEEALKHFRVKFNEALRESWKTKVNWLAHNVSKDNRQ
Chain of PI3Kδ (p110δ/p85α) (P27986 whole entry partner): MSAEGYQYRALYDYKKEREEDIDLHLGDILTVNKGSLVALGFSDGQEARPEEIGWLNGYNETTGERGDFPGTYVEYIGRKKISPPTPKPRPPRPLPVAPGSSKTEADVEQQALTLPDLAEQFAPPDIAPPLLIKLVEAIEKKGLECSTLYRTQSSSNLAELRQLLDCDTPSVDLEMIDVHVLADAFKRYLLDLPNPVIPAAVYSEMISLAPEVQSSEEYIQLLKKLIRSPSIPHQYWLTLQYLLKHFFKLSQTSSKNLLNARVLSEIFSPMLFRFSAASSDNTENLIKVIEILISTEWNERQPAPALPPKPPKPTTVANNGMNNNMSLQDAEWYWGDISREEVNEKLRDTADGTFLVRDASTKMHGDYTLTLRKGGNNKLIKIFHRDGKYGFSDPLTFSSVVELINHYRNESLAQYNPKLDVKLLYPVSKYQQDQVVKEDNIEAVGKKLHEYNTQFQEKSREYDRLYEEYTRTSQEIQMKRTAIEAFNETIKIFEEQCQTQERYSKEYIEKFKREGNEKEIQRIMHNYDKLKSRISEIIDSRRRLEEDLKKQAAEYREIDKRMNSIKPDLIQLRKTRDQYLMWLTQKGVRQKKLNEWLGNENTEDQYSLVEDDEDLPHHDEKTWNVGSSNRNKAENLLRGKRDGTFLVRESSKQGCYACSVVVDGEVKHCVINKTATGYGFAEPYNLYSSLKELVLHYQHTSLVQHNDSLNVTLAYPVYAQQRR

Compound | IC50
COc1c(C(C)n2nc(C)c3c(N)ncnc32)cc(Cl)c(C#N)c1C1CN(C(C)CO)C1 (single isomer, unassigned) [Example 273, 4-[1-(4-amino-3-methyl-1H-pyrazolo[3,4-d]pyrimidin-1-yl)ethyl]-6-chloro-2-[1-(2-hydroxy-1-methylethyl)azetidin-3-yl]-3-methoxybenzonitrile] | < 10 nM
COc1c(C(C)n2nc(C)c3c(N)ncnc32)cc(Cl)c(C#N)c1C1CN(C2COC2)C1 (single isomer, unassigned) [Example 274, 4-[1-(4-Amino-3-methyl-1H-pyrazolo[3,4-d]pyrimidin-1-yl)ethyl]-6-chloro-3-methoxy-2-(1-oxetan-3-ylazetidin-3-yl)benzonitrile] | < 10 nM
COc1c(C(C)n2nc(C)c3c(N)ncnc32)cc(Cl)c(C#N)c1C1CN(C2CCOC2)C1 (single isomer, unassigned) [Example 276, 4-[1-(4-Amino-3-methyl-1H-pyrazolo[3,4-d]pyrimidin-1-yl)ethyl]-6-chloro-3-methoxy-2-[1-(tetrahydrofuran-3-yl)azetidin-3-yl]benzonitrile] | < 10 nM
COc1c(C(C)n2nc(C)c3c(N)ncnc32)cc(Cl)c(C#N)c1C1CN(C2CCOCC2)C1 (single isomer, unassigned) [Example 277, 4-[1-(4-Amino-3-methyl-1H-pyrazolo[3,4-d]pyrimidin-1-yl)ethyl]-6-chloro-3-methoxy-2-[1-(tetrahydro-2H-pyran-4-yl)azetidin-3-yl]benzonitrile] | < 10 nM
COc1c(C(C)n2nc(C)c3c(N)ncnc32)cc(Cl)c(C#N)c1C1CN(CC2CCOC2)C1 (single isomer, unassigned) [Example 279, 4-[1-(4-Amino-3-methyl-1H-pyrazolo[3,4-d]pyrimidin-1-yl)ethyl]-6-chloro-3-methoxy-2-[1-(tetrahydrofuran-3-ylmethyl)azetidin-3-yl]benzonitrile] | < 10 nM
COc1c(C(C)n2nc(C)c3c(N)ncnc32)cc(Cl)c(C#N)c1C1CN(C(C)=O)C1 (single isomer, unassigned) [Example 281, 2-(1-Acetylazetidin-3-yl)-4-[1-(4-amino-3-methyl-1H-pyrazolo[3,4-d]pyrimidin-1-yl)ethyl]-6-chloro-3-methoxybenzonitrile] | < 10 nM
COc1c(C(C)n2nc(C)c3c(N)ncnc32)cc(Cl)c(C#N)c1C1CN(S(C)(=O)=O)C1 (single isomer, unassigned) [Example 285, 4-[1-(4-Amino-3-methyl-1H-pyrazolo[3,4-d]pyrimidin-1-yl)ethyl]-6-chloro-3-methoxy-2-[1-(methylsulfonyl)azetidin-3-yl]benzonitrile] | < 10 nM
COc1c(C(C)n2nc(C)c3c(N)ncnc32)cc(Cl)c(C#N)c1C1CN(S(=O)(=O)C(C)C)C1 (single isomer, unassigned) [Example 287, 4-[1-(4-Amino-3-methyl-1H-pyrazolo[3,4-d]pyrimidin-1-yl)ethyl]-6-chloro-2-[1-(isopropylsulfonyl)azetidin-3-yl]-3-methoxybenzonitrile] | < 10 nM
COC(=O)N1CC(c2c(C#N)c(Cl)cc(C(C)n3nc(C)c4c(N)ncnc43)c2OC)C1 (single isomer, unassigned) [Example 289, Methyl 3-{3-[1-(4-amino-3-methyl-1H-pyrazolo[3,4-d]pyrimidin-1-yl)ethyl]-5-chloro-6-cyano-2-methoxyphenyl}azetidine-1-carboxylate] | < 10 nM
COc1c(C(C)n2nc(C)c3c(N)ncnc32)cc(Cl)c(C#N)c1C1CN(C(=O)NC(C)(C)C)C1 (single isomer, unassigned) [Example 292, 3-{3-[1-(4-Amino-3-methyl-1H-pyrazolo[3,4-d]pyrimidin-1-yl)ethyl]-5-chloro-6-cyano-2-methoxyphenyl}-N-(tert-butyl)azetidine-1-carboxamide] | < 10 nM
COc1c(C(C)n2nc(C)c3c(N)ncnc32)cc(Cl)c(C#N)c1C1CN(C(N)=O)C1 (single isomer, unassigned) [Example 293, 3-{3-[1-(4-Amino-3-methyl-1H-pyrazolo[3,4-d]pyrimidin-1-yl)ethyl]-5-chloro-6-cyano-2-methoxyphenyl}azetidine-1-carboxamide] | < 10 nM
CNC(=O)N1CC(c2c(C#N)c(Cl)cc(C(C)n3nc(C)c4c(N)ncnc43)c2OC)C1 (single isomer, unassigned) [Example 294, 3-{3-[1-(4-Amino-3-methyl-1H-pyrazolo[3,4-d]pyrimidin-1-yl)ethyl]-5-chloro-6-cyano-2-methoxyphenyl}-N-methylazetidine-1-carboxamide] | < 10 nM
COc1c(C(C)n2nc(C)c3c(N)ncnc32)cc(Cl)c(C#N)c1C1CN(C(=O)N(C)C)C1 (single isomer, unassigned) [Example 296, 3-{3-[1-(4-Amino-3-methyl-1H-pyrazolo[3,4-d]pyrimidin-1-yl)ethyl]-5-chloro-6-cyano-2-methoxyphenyl}-N,N-dimethylazetidine-1-carboxamide] | < 10 nM
CCOc1c(C(C)n2nc(C)c3c(N)ncnc32)cc(Cl)c(F)c1C1COC(=O)N1 (single isomer, unassigned) [Example 353, 4-{3-[1-(4-amino-3-methyl-1H-pyrazolo[3,4-d]pyrimidin-1-yl)ethyl]-5-chloro-2-ethoxy-6-fluorophenyl}-1,3-oxazolidin-2-one] | > 500 nM
COc1c(C(C)n2nc(C)c3c(N)ncnc32)cc(Cl)c(C)c1C1CN(C(C)=O)C1 (centres unmarked) [Example 2, 1-{1-[3-(1-Acetylazetidin-3-yl)-5-chloro-2-methoxy-4-methylphenyl]ethyl}-3-methyl-1H-pyrazolo[3,4-d]pyrimidin-4-amine trifluoroacetate] | < 10 nM
CCC(=O)N1CC(c2c(C)c(Cl)cc(C(C)n3nc(C)c4c(N)ncnc43)c2OC)C1 (centres unmarked) [Example 3, 1-{1-[5-Chloro-2-methoxy-4-methyl-3-(1-propionylazetidin-3-yl)phenyl]ethyl}-3-methyl-1H-pyrazolo[3,4-d]pyrimidin-4-amine trifluoroacetate] | < 10 nM
CCC(C)N1CC(c2c(C)c(Cl)cc(C(C)n3nc(C)c4c(N)ncnc43)c2OC)C1 (centres unmarked) [Example 8, 1-{1-[3-(1-sec-butylazetidin-3-yl)-5-chloro-2-methoxy-4-methylphenyl]ethyl}-3-methyl-1H-pyrazolo[3,4-d]pyrimidin-4-amine] | < 10 nM
COc1c(C(C)n2nc(C)c3c(N)ncnc32)cc(Cl)c(C)c1-c1ccc(C(=O)N(C)C)nc1 (centres unmarked) [Example 11, 5-{3-[1-(4-Amino-3-methyl-1H-pyrazolo[3,4-d]pyrimidin-1-yl)ethyl]-5-chloro-2-methoxy-6-methylphenyl}-N,N-dimethylpyridine-2-carboxamide bis(trifluoroacetate)] | < 10 nM
COc1c(C(C)n2ccc3c(N)ncnc32)cc(Cl)c(C)c1-c1ccc(C(=O)N(C)C)nc1 (centres unmarked) [Example 12, 5-{3-[1-(4-Amino-7H-pyrrolo[2,3-d]pyrimidin-7-yl)ethyl]-5-chloro-2-methoxy-6-methylphenyl}-N,N-dimethylpyridine-2-carboxamide trifluoroacetate] | 200 to 500 nM
CCOc1c(C(C)n2nc(C)c3c(N)ncnc32)cc(Cl)c(C)c1-c1ccc(C(=O)N(C)C)nc1 (centres unmarked) [Example 14, 5-{3-[1-(4-Amino-3-methyl-1H-pyrazolo[3,4-d]pyrimidin-1-yl)ethyl]-5-chloro-2-ethoxy-6-methylphenyl}-N,N-dimethylpyridine-2-carboxamide bis(trifluoroacetate)] | < 10 nM
